Remaining binding and IC50 data for seven molecules are collected here from patent US20230066011A1, “PYRROLOPYRIMIDINE DERIVATIVE, AND PHARMACEUTICAL COMPOSITION FOR PREVENTING OR TREATING PROTEIN KINASE-RELATED DISEASE COMPRISING SAME AS ACTIVE INGREDIENT” (VORONOI CO., LTD., priority 2019, published 2023).

In test [1] the target is T1, DYRK2 (Homo sapiens, UniProt Q92630).
T1 construct: purchased DiscoverX Corp. (ScanMAX Kinase analysis panel, service)
T1 sequence (Q92630 1-601): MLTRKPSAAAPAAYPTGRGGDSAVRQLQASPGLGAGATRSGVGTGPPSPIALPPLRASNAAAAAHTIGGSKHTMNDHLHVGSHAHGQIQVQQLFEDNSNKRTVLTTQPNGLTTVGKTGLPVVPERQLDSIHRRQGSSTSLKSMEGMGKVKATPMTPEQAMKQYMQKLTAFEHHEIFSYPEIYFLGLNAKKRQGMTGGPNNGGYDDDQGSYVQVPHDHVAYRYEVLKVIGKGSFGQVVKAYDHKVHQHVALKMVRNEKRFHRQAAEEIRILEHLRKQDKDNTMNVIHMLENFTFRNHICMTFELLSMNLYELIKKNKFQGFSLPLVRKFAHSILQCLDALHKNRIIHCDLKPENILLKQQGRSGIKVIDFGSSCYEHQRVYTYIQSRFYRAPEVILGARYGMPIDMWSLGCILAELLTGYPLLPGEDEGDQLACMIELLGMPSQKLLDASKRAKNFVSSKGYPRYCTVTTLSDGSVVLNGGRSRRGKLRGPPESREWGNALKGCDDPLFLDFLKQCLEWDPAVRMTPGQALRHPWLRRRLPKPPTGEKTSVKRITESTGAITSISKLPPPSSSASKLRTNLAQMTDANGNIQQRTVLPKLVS
Nature of the test: ScanMAX Kinase analysis panel, DYRK2. It is filed as binding. Conditions: 1 μM in DMSO; <35% considered inhibitory; read-out: percent control (% control), DYRK2. As to the method: (§1) Specifically, the enzyme (kinase) selectivity of Example compounds 238, 361, 411, 157, 161, 228, and 158 selected from the Example compounds of the present invention was determined by commissioning DiscoverX Corp., and an experiment was performed using a ScanMAX™ Kinase analysis panel. In this case, a concentration of the drug with which the enzymes were treated was 1 μM in DMSO, and the percent control (% control) was defined in the same manner as in the following Expression 1.
(§2) (Example Compound−Positive Control)/(Negative Control−Positive Control)×100 [Expression 1]
(§3) wherein the positive control represents a compound having a percent control of 0%, and the negative control represents DMSO having a percent control of 100%. For the enzyme selectivity of the present invention, it was considered that the compound has an inhibitory activity on each of the enzymes when the percent control for the corresponding enzyme was <35% (i. e., less than 35%).

The target of test [2] is DYRK1 (Homo sapiens, UniProt Q13627). Nature of the test: Kinase HotSpot service (Reaction Biology Corporation), DYRK1. It is filed as biochemical. Conditions: ATP 10 uM, read-out: DYRK1 IC50 (values indicated by *). As to the method:
The inhibitory activities of the compounds were measured at a 3-fold concentration gradient starting from a maximum compound concentration of […], and the values measured using the Kinase HotSpot service (Reaction Biology Corporation) are indicated by an asterisk (*).
All the experimental methods were performed as provided by the Kinase HotSpot Customer Protocol (http://www.reactionbiology.com//Kinase_Assay_Protocol).

Test [3] addresses T2, PLK4 (Homo sapiens, UniProt O00444).
T2 construct: purchased DiscoverX Corp. (ScanMAX Kinase analysis panel, service)
T2 sequence (O00444 1-970): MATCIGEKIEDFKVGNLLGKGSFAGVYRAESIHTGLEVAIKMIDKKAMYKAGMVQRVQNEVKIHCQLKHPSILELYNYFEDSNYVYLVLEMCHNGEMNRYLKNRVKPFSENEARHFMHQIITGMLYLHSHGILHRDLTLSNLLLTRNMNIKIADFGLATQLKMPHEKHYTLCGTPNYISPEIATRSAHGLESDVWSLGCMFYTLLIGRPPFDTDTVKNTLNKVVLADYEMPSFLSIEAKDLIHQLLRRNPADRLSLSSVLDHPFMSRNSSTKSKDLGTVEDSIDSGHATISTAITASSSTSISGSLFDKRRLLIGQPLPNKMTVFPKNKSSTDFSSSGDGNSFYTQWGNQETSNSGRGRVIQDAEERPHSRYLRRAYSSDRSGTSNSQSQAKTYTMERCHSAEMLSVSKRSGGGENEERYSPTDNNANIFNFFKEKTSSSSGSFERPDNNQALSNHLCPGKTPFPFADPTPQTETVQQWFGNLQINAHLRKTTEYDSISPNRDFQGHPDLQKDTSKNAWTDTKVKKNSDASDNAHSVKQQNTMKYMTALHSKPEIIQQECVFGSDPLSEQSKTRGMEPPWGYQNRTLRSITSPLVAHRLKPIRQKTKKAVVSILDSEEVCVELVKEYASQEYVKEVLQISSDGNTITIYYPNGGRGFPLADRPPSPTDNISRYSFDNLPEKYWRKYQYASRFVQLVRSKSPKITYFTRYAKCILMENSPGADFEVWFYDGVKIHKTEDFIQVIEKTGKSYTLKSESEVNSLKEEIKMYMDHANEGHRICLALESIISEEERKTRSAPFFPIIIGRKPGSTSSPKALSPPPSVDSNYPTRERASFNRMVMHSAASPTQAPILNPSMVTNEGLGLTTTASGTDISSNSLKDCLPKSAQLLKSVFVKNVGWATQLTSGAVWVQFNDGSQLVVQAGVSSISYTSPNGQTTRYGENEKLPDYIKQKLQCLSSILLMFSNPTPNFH
Nature of the test: ScanMAX Kinase analysis panel, PLK4. The format is binding. Conditions: 1 μM in DMSO; <35% considered inhibitory; read-out: percent control (% control), PLK4. As to the method:
as §1, §2, §3

The target in test [4] is T3, PHKG2 (Homo sapiens, UniProt P15735).
T3 construct: purchased DiscoverX Corp. (ScanMAX Kinase analysis panel, service)
T3 sequence (P15735 1-406): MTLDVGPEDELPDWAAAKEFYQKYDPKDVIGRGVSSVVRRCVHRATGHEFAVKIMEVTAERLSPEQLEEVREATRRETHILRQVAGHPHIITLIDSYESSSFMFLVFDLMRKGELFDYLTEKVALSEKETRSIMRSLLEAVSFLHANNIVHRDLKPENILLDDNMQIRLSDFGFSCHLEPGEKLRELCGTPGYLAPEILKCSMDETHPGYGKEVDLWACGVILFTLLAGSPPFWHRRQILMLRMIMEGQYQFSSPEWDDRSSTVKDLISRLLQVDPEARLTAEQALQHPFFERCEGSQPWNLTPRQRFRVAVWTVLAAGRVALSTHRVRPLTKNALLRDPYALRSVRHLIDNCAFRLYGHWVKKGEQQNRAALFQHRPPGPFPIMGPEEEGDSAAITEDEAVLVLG
Nature of the test: ScanMAX Kinase analysis panel, PHKG2. Conditions: 1 μM in DMSO; <35% considered inhibitory; read-out: percent control (% control), PHKG2. The format is binding. As to the method: as §1, §2, §3

Test [5] deals with LRRK2 (G2019S) (Homo sapiens, UniProt Q5S007, G2019S). Nature of the test: ScanMAX Kinase analysis panel, LRRK2 (G2019S). The format is binding. Details: purchased DiscoverX Corp. (ScanMAX Kinase analysis panel, service). Conditions: 1 μM in DMSO; <35% considered inhibitory; read-out: percent control (% control), LRRK2 (G2019S). The method, then: as §1, §2, §3
Sequence of LRRK2 (G2019S) (Q5S007 whole entry G2019S): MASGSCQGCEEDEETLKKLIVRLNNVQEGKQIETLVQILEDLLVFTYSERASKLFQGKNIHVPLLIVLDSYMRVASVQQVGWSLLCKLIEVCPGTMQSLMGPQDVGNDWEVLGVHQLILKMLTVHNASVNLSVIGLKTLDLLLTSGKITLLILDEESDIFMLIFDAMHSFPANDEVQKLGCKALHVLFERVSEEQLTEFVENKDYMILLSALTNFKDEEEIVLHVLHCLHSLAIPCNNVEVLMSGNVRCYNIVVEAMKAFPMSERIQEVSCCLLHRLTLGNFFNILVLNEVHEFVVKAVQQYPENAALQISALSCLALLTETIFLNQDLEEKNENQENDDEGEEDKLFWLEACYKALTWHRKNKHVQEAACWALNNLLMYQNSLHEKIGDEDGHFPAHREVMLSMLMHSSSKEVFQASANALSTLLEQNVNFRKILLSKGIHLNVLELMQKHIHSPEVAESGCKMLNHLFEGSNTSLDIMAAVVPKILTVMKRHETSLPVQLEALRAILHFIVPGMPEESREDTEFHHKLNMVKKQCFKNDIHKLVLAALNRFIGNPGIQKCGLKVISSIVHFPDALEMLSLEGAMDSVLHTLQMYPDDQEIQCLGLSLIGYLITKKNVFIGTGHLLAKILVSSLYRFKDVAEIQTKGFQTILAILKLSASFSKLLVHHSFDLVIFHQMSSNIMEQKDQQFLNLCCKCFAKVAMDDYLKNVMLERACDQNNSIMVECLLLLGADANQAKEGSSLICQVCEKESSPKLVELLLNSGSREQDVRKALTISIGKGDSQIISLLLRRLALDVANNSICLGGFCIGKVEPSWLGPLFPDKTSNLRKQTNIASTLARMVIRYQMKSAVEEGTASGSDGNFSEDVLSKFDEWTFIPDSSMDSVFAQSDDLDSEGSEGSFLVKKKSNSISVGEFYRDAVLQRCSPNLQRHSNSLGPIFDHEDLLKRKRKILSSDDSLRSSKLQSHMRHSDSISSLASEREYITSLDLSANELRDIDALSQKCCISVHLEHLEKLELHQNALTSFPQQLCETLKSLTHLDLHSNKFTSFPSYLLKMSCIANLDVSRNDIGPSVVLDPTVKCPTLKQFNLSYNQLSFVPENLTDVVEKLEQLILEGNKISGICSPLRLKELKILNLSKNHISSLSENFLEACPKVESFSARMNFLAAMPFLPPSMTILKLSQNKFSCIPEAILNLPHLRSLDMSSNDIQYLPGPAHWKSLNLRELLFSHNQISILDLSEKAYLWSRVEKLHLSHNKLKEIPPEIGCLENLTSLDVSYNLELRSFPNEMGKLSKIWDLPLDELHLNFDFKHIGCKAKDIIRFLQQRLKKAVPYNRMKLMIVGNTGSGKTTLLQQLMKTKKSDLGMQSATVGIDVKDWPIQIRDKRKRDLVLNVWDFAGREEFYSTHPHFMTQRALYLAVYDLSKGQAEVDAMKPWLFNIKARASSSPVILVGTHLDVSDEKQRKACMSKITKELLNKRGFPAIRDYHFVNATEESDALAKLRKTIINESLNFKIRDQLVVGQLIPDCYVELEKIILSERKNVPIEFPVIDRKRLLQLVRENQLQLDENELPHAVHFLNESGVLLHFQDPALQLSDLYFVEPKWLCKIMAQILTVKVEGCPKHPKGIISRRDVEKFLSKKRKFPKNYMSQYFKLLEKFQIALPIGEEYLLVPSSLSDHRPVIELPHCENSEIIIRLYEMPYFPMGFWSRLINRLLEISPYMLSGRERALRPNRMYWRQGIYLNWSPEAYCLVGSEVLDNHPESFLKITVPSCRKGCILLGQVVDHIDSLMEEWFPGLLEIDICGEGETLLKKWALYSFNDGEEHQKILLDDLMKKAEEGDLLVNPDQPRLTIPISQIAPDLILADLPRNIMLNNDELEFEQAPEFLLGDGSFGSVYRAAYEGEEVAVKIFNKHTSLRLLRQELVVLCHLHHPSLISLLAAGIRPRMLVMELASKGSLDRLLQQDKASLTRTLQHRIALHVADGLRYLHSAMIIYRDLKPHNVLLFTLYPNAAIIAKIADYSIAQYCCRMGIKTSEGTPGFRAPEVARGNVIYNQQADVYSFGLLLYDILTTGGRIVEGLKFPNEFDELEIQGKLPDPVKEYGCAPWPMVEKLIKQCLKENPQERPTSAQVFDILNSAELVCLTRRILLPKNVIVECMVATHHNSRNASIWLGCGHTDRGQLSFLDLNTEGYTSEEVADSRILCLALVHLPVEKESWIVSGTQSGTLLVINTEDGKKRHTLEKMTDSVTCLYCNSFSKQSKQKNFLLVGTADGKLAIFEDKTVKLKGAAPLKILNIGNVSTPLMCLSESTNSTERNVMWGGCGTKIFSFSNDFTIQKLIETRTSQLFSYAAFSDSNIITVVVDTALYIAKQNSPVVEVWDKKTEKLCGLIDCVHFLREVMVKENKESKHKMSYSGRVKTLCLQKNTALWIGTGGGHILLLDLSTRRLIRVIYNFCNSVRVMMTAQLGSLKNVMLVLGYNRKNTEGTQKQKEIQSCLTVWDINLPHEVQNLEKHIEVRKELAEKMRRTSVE
For test [6], the target named is T4, CLK1 (Homo sapiens, UniProt P49759).
T4 construct: purchased DiscoverX Corp. (ScanMAX Kinase analysis panel, service)
T4 sequence (P49759 whole entry): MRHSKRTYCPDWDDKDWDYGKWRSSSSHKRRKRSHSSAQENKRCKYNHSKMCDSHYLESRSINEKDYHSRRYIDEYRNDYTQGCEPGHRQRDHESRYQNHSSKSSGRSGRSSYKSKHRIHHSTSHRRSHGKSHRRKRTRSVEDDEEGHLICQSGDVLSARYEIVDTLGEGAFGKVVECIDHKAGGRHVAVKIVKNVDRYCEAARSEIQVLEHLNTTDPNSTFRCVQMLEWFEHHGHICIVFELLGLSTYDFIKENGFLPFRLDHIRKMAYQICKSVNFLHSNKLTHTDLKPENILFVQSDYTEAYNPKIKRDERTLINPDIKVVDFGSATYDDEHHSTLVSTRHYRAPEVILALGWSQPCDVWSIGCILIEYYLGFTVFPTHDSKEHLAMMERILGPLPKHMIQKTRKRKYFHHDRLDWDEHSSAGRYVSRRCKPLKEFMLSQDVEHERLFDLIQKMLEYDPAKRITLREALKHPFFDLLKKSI
Nature of the test: ScanMAX Kinase analysis panel, CLK1. It is filed as binding. Conditions: 1 μM in DMSO; <35% considered inhibitory; read-out: percent control (% control), CLK1. As to the method: as §1, §2, §3

Some results are limits rather than exact numbers.

Usually IC50 stands for the midpoint of a concentration-inhibition curve. Regarding `CCNc1nc(Nc2ccc(S(=O)(=O)N3CCC(N4CCOCC4)CC3)cc2OC)nc2[nH]cc(C(F)(F)F)c12` [Example 158, N^4-ethyl-N^2-(2-methoxy-4-((4-morpholinopiperidin-1-yl)sulfonyl)phenyl)-5-(trifluoromethyl)-7H-pyrrolo[2,3-d]pyrimidine-2,4-diamine 2,2,2-trifluoroacetate], the remaining binding at 1 µM came out at 25% in test [1]; 26% in test [3]; 51% in test [4]; 3.6% in test [5]; 1% in test [6]. Further, in test [2], the half-maximal inhibitory concentration (IC50) was below 0.1 µM.
Regarding `CNc1nc(Nc2ccc(P3(=O)CCN(C4CC4)CC3)cc2OC)nc2[nH]cc(C(F)(F)F)c12` [Example 411, 1-cyclopropyl-4-(3-methoxy-4-((4-(methylamino)-5-(trifluoromethyl)-7H-pyrrolo[2,3-d]pyrimidin-2-yl)amino)phenyl)-1,4-azaphosphinane-4-oxide], the remaining binding at 1 µM in test [1] stood at 28%; in test [3] it was 23%; in test [4], 2.5%; in test [5], 1.3%; in test [6], 7.2%.
As to `CCCNc1nc(Nc2ccc(S(=O)(=O)N3CCC(N4CCOCC4)CC3)cc2OC)nc2[nH]cc(C(F)(F)F)c12` [Example 161, N^2-(2-methoxy-4-((4-morpholinopiperidin-1-yl)sulfonyl)phenyl)-N^4-propyl-5-(trifluoromethyl)-7H-pyrrolo[2,3-d]pyrimidine-2,4-diamine], the remaining binding at 1 µM in test [1] worked out at 33%; in test [3] it was 11%; in test [4], 21%; in test [5], 0%; in test [6] it was 5.5%. The IC50 in test [2] is below 0.1 µM.
Turning to `CNc1nc(Nc2ccc(S(=O)(=O)N3CCC(N4CCOCC4)CC3)cc2OC)nc2[nH]cc(C(F)(F)F)c12` [Example 157, N^2-(2-methoxy-4-((4-morpholinopiperidin-1-yl)sulfonyl)phenyl)-N^4-methyl-5-(trifluoromethyl)-7H-pyrrolo[2,3-d]pyrimidine-2,4-diamine 2,2,2-trifluoroacetate], the remaining binding at 1 µM in test [1] worked out at 7%; in test [3], 10%; in test [4], 5.8%; in test [5] it was 1.6%; in test [6], 6.7%.
As to `CNc1nc(Nc2ccc(C(=O)N3CCC(N4CCOCC4)CC3)c3c2OCCO3)nc2[nH]cc(C(F)(F)F)c12` [Example 238, (8-((4-(methylamino)-5-(trifluoromethyl)-7H-pyrrolo[2,3-d]pyrimidin-2-yl)amino)-2,3-dihydrobenzo[b][1,4]dioxin-5-yl)(4-morpholinopiperidin-1-yl)methanone], the remaining binding at 1 µM stood at 19% in test [1]; 7.8% in test [3]; 2.2% in test [4]; 0.05% in test [5]; 16% in test [6].
Taken in the same sequence, the figures for `C=CCNc1nc(Nc2ccc(S(=O)(=O)N3CCC(N4CCOCC4)CC3)cc2OC)nc2[nH]cc(C#N)c12` [Example 361, 4-(allylamino)-2-((2-methoxy-4-((4-morpholino-piperidin-1-yl)sulfonyl)phenyl)amino)-7H-pyrrolo[2,3-d]pyrimidine-5-carbonitrile] were 10%, 0.3%, 3%, 0% and 2.4%.
Take `O=C(c1ccc(Nc2nc(C3CC3)c3c(C(F)(F)F)c[nH]c3n2)c2c1OCCO2)N1CCC(N2CCOCC2)CC1` [Example 228, (8-((4-cyclopropyl-5-(trifluoromethyl)-7H-pyrrolo[2,3-d]pyrimidin-2-yl)amino)-2,3-dihydrobenzo[b][1,4]dioxin-5-yl)(4-morpholinopiperidin-1-yl)methanone]: the remaining binding at 1 µM came to 16% in test [1]; 3.2% in test [3]; 5.5% in test [4]; 1.1% in test [5]; 6.1% in test [6]. Besides, in test [2], the IC50 was below 0.1 µM.
